Assay results published in ChEMBL document CHEMBL5620432 (Eur J Med Chem, 2023).
Activity calls are given as the source filed them. The rule behind the calls is not given here.

Assays:
Mu-type opioid receptor [1] = biological target: T1, Mu-type opioid receptor (Homo sapiens, UniProt P35372); assay: Agonist activity at human MOR expressed in CHO-K1 cells co-expressed with Galphai by cAMP assay; type: functional, cell-based
Mu-type opioid receptor [2] = biological target: T1, Mu-type opioid receptor; assay: Agonist activity at human MOR expressed in CHO-K1 cells co-expressed with Galphai by cAMP assay relative to control; type: functional, cell-based
Nociceptin receptor [3] = biological target: T2, Nociceptin receptor (Homo sapiens, UniProt P41146); assay: Agonist activity at human NOP receptor expressed in CHO-K1 cells co-expressed with Galphai by cAMP assay; type: functional, cell-based
T2 sequence (P41146 whole entry): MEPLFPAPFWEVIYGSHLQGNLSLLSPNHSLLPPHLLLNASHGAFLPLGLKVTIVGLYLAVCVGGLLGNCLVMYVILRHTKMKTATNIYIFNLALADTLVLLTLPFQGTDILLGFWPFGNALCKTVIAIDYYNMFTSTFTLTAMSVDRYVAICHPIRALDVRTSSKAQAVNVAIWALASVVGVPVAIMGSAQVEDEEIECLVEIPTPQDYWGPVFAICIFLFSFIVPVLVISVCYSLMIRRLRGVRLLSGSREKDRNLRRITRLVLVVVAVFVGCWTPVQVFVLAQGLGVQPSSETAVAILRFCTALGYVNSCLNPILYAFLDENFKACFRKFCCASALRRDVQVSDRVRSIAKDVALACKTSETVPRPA

Nociceptin receptor [4] = biological target: T2, Nociceptin receptor; assay: Agonist activity at human NOP receptor expressed in CHO-K1 cells co-expressed with Galphai by cAMP assay relative to control; type: functional, cell-based
Mus musculus [5] = assay: Antinociceptive activity in wild type C57BL/6 mouse assessed as maximum possible effect at 12 mg/kg measured upto 60 mins by tail-flick test; type: functional; conditions: 1 h
Mus musculus [6] = assay: Induction of motivational effect in C57BL/6 mouse assessed as increase in number of jumps at 2.5 microg/kg, sc administered daily twice for 5 days by CPP analysis; type: functional, organism-based; conditions: dose 2.5 µg/kg, time 5.0 day
Mu-type opioid receptor [7] = biological target: T1, Mu-type opioid receptor; assay: Displacement of [3H]-Diprenorphine from human MOR expressed in CHO-K1 cell membrane assessed as inhibition constant; type: cell membranes
Nociceptin receptor [8] = biological target: T2, Nociceptin receptor; assay: Displacement of [3H]-Nociceptin from human NOP receptor expressed in CHO-K1 cell membrane assessed as inhibition constant; type: cell membranes
Mu-type opioid receptor [9] = biological target: T1, Mu-type opioid receptor; assay: Agonist activity at human MOR expressed in CHO-K1 cells assessed as beta arrestin-2 recruitment; type: functional, cell-based
Nociceptin receptor [10] = biological target: T2, Nociceptin receptor; assay: Agonist activity at human NOP receptor expressed in CHO-K1 cells assessed as beta arrestin-2 recruitment; type: functional, cell-based
[11] = Drug concentration in mouse plasma at 2 mg/kg,sc measured after 5 mins by ICP-MS analysis; type: ADME, organism-based
[12] = Drug concentration in mouse plasma at 2 mg/kg,sc measured after 60 mins by ICP-MS analysis; type: ADME, organism-based
[13] = Drug concentration in mouse brain at 2 mg/kg,sc measured after 5 mins by ICP-MS analysis; type: ADME, organism-based; conditions: read-out: Ct
[14] = Drug concentration in mouse brain at 2 mg/kg,sc measured after 60 mins by ICP-MS analysis; type: ADME, organism-based; conditions: read-out: Ct
[15] = Drug concentration in mouse intestine at 2 mg/kg,sc measured after 5 mins by ICP-MS analysis; type: ADME, organism-based; conditions: read-out: Ct
[16] = Drug concentration in mouse intestine at 2 mg/kg,sc measured after 60 mins by ICP-MS analysis; type: ADME, organism-based; conditions: read-out: Ct
Mu-type opioid receptor [17] = biological target: T1, Mu-type opioid receptor; assay: Agonist activity at human MOR expressed in CHO-K1 cells assessed as decrease in intracellular cAMP level at 1 uM in presence of naltrexone; type: functional, cell-based; conditions: filed as agonist
Nociceptin receptor [18] = biological target: T2, Nociceptin receptor; assay: Agonist activity at human NOP receptor expressed in CHO-K1 cells assessed as decrease in intracellular cAMP level at 1 uM in presence of BAN ORL 24; type: functional, cell-based; conditions: filed as agonist
Mus musculus [19] = assay: Induction of motivational effect in C57BL/6 mouse assessed as increase in reward behaviour at 284 microg/kg, sc administered for 4 days and measured on day 6 by CPP analysis; type: functional, organism-based; conditions: dose 284.0 µg/kg, time 6.0 day
Mus musculus [20] = assay: Induction of motivational effect in C57BL/6 mouse assessed as increase in number of jumps at 284 microg/kg, sc administered daily twice for 5 days by CPP analysis; type: functional, organism-based; conditions: dose 284.0 µg/kg, time 5.0 day
Mus musculus [21] = assay: Antinociceptive activity in thermal stimulated sc dosed wild type C57BL/6 mouse measured upto 120 mins by tail flick test; type: functional; conditions: C57BL/6, 2 h
Mus musculus [22] = assay: Antinociceptive activity in thermal stimulated wild type C57BL/6 mouse at 284 to 568 microg/kg, sc measured at 30 to 60 mins by tail flick test; type: functional, organism-based; conditions: dose 284-568 µg/kg, time 30-60 min
Mus musculus [23] = assay: Antinociceptive activity in thermal stimulated MOR-knockout C57BL/6 mouse assessed as delay in flick tail at 252.8 microg/kg, sc measured upto 120 mins by tail flick test; type: functional, organism-based; conditions: dose 252.8 µg/kg
Mus musculus [24] = assay: Antinociceptive activity in thermal stimulated sc dosed hMOR/mMOR knockout C57BL/6 mouse measured upto 120 mins by tail flick test; type: functional; conditions: C57BL/6, 2 h
Mus musculus [25] = assay: Antinociceptive activity in thermal stimulated hMOR/mMOR knockout C57BL/6 mouse at 402 microg/kg,sc measured after 30 to 60 mins by tail flick test; type: functional, organism-based; conditions: dose 402.0 µg/kg, time 30-60 min
Mus musculus [26] = assay: Antinociceptive activity in thermal stimulated wild type C57BL/6 mouse assessed as drug tolerance at 568 microg/kg, sc administered twice daily for 5 days and measured on day 1, 3, and 5 after 30 mins post drug treatment by tail flick test; type: functional, organism-based; conditions: dose 568.0 µg/kg, time 5.0 day
Mus musculus [27] = assay: Antinociceptive activity in thermal stimulated hMOR/mMOR knockout C57BL/6 mouse assessed as drug tolerance at 402 microg/kg, sc administered twice daily for 5 days and measured on day 1, 3, and 5 after 30 mins post drug treatment by tail flick test; type: functional, organism-based; conditions: dose 402.0 µg/kg, time 5.0 day

T1 sequence (P35372 whole entry): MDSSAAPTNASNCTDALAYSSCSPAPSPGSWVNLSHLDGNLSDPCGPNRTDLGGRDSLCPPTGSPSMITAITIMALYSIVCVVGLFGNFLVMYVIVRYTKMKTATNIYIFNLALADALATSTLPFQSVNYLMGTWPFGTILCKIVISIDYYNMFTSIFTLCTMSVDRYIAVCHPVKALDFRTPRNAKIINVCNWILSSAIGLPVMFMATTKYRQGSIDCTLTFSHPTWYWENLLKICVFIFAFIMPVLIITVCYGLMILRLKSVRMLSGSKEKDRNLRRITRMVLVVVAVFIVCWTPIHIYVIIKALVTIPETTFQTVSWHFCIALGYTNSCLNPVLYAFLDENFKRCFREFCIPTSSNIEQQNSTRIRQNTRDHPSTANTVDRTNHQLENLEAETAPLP

CN1CCc2ccccc2C1CNC(=O)c1ccc(Cl)c(Cl)c1 (stereo unspecified)
EC50 (Mu-type opioid receptor [1]): 0.0234 nM | Emax (Mu-type opioid receptor [2]; filed as agonist): 93.6% | EC50 (Nociceptin receptor [3]): 0.17 nM | Emax (Nociceptin receptor [4]; filed as agonist): 87%

CN(C)C(CNC(=O)NCc1ccc(OC(F)(F)F)cc1)c1cccc(F)c1 (stereo unspecified)
EC50 (Mu-type opioid receptor [1]): 1.52 nM | Emax (Mu-type opioid receptor [2]; filed as agonist): 76.9% | EC50 (Nociceptin receptor [3]): 2420 nM | Emax (Nociceptin receptor [4]; filed as agonist): 61.9%

CN(C)C(CNC(=O)NCCc1ccc(F)cc1)c1cccc(F)c1 (stereo unspecified)
Emax (Mu-type opioid receptor [2]; filed as agonist): 81.1% | EC50 (Nociceptin receptor [3]): 0.000126 nM | Emax (Nociceptin receptor [4]; filed as agonist): 58.4%

Cc1ccc(CNC(=O)NCC(c2cccc(F)c2)N(C)C)cc1 (stereo unspecified)
Emax (Mu-type opioid receptor [2]; filed as agonist): 88% | Emax (Nociceptin receptor [4]): < 20%

CN(C)C(CNC(=O)NC1CCCC1)c1cccc(F)c1 (stereo unspecified)
Emax (Mu-type opioid receptor [2]): < 20% | EC50 (Nociceptin receptor [3]): 2.6 nM | Emax (Nociceptin receptor [4]; filed as agonist): 67.1%

CN(C)C(CNC(=O)NCc1ccc(C(F)(F)F)cc1)c1cccc(F)c1 (stereo unspecified)
EC50 (Mu-type opioid receptor [1]): 0.19 nM | Emax (Mu-type opioid receptor [2]; filed as agonist): 93.3% | EC50 (Nociceptin receptor [3]): 0.71 nM | Emax (Nociceptin receptor [4]; filed as agonist): 92.3% | MPE (Mus musculus [5]): 0%

CN(C)C(CNC(=O)NCc1ccc(Cl)cc1)c1cccc(F)c1 (stereo unspecified)
EC50 (Mu-type opioid receptor [1]): 0.00033 nM | Emax (Mu-type opioid receptor [2]; filed as agonist): 84.7% | Emax (Nociceptin receptor [4]): < 20%

CN(C)C(CNC(=O)NCCc1cccc(F)c1)c1cccc(F)c1 (stereo unspecified)
EC50 (Mu-type opioid receptor [1]): 0.000374 nM | Emax (Mu-type opioid receptor [2]; filed as agonist): 90.8% | Emax (Nociceptin receptor [4]; filed as agonist): 92.6% | MPE (Mus musculus [5]): 0%

CN(C)C(CNC(=O)NCc1cccc(OC(F)(F)F)c1)c1cccc(F)c1 (stereo unspecified)
EC50 (Mu-type opioid receptor [1]): 0.0164 nM | Emax (Mu-type opioid receptor [2]; filed as agonist): 77.9% | EC50 (Nociceptin receptor [3]): 0.02 nM | Emax (Nociceptin receptor [4]; filed as agonist): 80.4%

CN(C)C(CNC(=O)Nc1ccc(Cl)c(Cl)c1)c1cccc(F)c1 (stereo unspecified)
Emax (Mu-type opioid receptor [2]; filed as agonist): 68.5% | EC50 (Nociceptin receptor [3]): 37.2 nM | Emax (Nociceptin receptor [4]; filed as agonist): 74.1%

CN(C)C(CNC(=O)NCc1cccc(C(F)(F)F)c1)c1cccc(F)c1 (stereo unspecified)
EC50 (Mu-type opioid receptor [1]): 0.00066 nM | Emax (Mu-type opioid receptor [2]; filed as agonist): 85.2% | Emax (Nociceptin receptor [4]): < 20%

Cc1cccc(CNC(=O)NCC(c2cccc(F)c2)N(C)C)c1 (stereo unspecified)
EC50 (Mu-type opioid receptor [1]): 0.526 nM | Emax (Mu-type opioid receptor [2]; filed as agonist): 91.4% | EC50 (Nociceptin receptor [3]): 2130 nM | Emax (Nociceptin receptor [4]; filed as agonist): 67.1%

CN(C)C(CNC(=O)NCCc1cccc(C(F)(F)F)c1)c1cccc(F)c1 (stereo unspecified)
EC50 (Mu-type opioid receptor [1]): 0.0186 nM | Emax (Mu-type opioid receptor [2]; filed as agonist): 74.1% | Emax (Nociceptin receptor [4]): < 20%

CN(C)C(CNC(=O)NCCc1ccc(C(F)(F)F)cc1)c1cccc(F)c1 (stereo unspecified)
EC50 (Mu-type opioid receptor [1]): 0.000501 nM | Emax (Mu-type opioid receptor [2]; filed as agonist): 88.5% | EC50 (Nociceptin receptor [3]): 0.06 nM | Emax (Nociceptin receptor [4]; filed as agonist): 57.5% | MPE (Mus musculus [5]): 39.05%

CN(C)C(CNC(=O)NCc1cccc(F)c1)c1cccc(F)c1 (stereo unspecified)
Emax (Mu-type opioid receptor [2]; filed as agonist): 91.2% | Emax (Nociceptin receptor [4]; filed as agonist): 89.8%

CN1CC[C@]23c4c5ccc(O)c4O[C@H]2[C@@H](O)C=C[C@H]3[C@H]1C5
Activity (Mus musculus [6]): Active

CN(C)C(CNC(=O)Nc1cccc(Cl)c1)c1cccc(F)c1 (stereo unspecified)
EC50 (Mu-type opioid receptor [1]): 0.1 nM | Emax (Mu-type opioid receptor [2]; filed as agonist): 72.5% | Emax (Nociceptin receptor [4]): < 20%

CN(C)C(CNC(=O)NCc1ccc(F)cc1)c1cccc(F)c1 (stereo unspecified)
Emax (Mu-type opioid receptor [2]; filed as agonist): 96.1% | Emax (Nociceptin receptor [4]; filed as agonist): 93.2% | MPE (Mus musculus [5]): 100%

Cc1ccc(CCNC(=O)NCC(c2cccc(F)c2)N(C)C)cc1 (stereo unspecified)
EC50 (Mu-type opioid receptor [1]): 15.1 nM | Emax (Mu-type opioid receptor [2]; filed as agonist): 80.7% | EC50 (Nociceptin receptor [3]): 209 nM | Emax (Nociceptin receptor [4]; filed as agonist): 76.9%

CN(C)C(CNC(=O)NCCCc1ccccc1)c1cccc(F)c1 (stereo unspecified)
EC50 (Mu-type opioid receptor [1]): 0.631 nM | Emax (Mu-type opioid receptor [2]; filed as agonist): 80.2% | EC50 (Nociceptin receptor [3]): 0.711 nM | Emax (Nociceptin receptor [4]; filed as agonist): 66.6%

CN(C)C(CNC(=O)NCCc1ccc(Cl)cc1)c1cccc(F)c1 (stereo unspecified)
Emax (Mu-type opioid receptor [2]; filed as agonist): 72.4% | EC50 (Nociceptin receptor [3]): 0.61 nM | Emax (Nociceptin receptor [4]; filed as agonist): 53.9%

CN(C)C(CNC(=O)NCc1cccc(Cl)c1)c1cccc(F)c1 (stereo unspecified)
EC50 (Mu-type opioid receptor [1]): 0.000102 nM | Emax (Mu-type opioid receptor [2]; filed as agonist): 92.5% | EC50 (Nociceptin receptor [3]): 0.000126 nM | Emax (Nociceptin receptor [4]; filed as agonist): 91.6% | MPE (Mus musculus [5]): 100% | Ki (Mu-type opioid receptor [7]): 0.4 nM | Ki (Nociceptin receptor [8]): 0.2 nM | EC50 (Mu-type opioid receptor [9]): 3.99 nM | EC50 (Nociceptin receptor [10]): 0.2 nM | concentration at 5 min [11]: 673 ng/mL | concentration at 1 h [12]: 119 ng/mL | concentration at 5 min [13]: 838 ng/g | concentration at 1 h [14]: 237 ng/g | concentration at 5 min [15]: 1290 ng/g | concentration at 1 h [16]: 454 ng/g | Activity (Mu-type opioid receptor [17]): Active | Activity (Nociceptin receptor [18]): Active | Activity (Mus musculus [19]): inactive | Activity (Mus musculus [20]): inactive | ED50 (Mus musculus [21]): 0.284 mg/kg | Activity (Mus musculus [22]): Active | Activity (Mus musculus [23]): inactive | ED50 (Mus musculus [24]): 0.402 mg/kg | Activity (Mus musculus [25]): Active | Activity (Mus musculus [26]): inactive | Activity (Mus musculus [27]): inactive

CN(C)C(CNC(=O)NCCc1ccccc1)c1cccc(F)c1 (stereo unspecified)
EC50 (Mu-type opioid receptor [1]): 21 nM | Emax (Mu-type opioid receptor [2]; filed as agonist): 86.6% | EC50 (Nociceptin receptor [3]): 2.96 nM | Emax (Nociceptin receptor [4]; filed as agonist): 72%

CN(C)C(CNC(=O)NCCc1cccc(Cl)c1)c1cccc(F)c1 (stereo unspecified)
Emax (Mu-type opioid receptor [2]; filed as agonist): 89.9% | Emax (Nociceptin receptor [4]; filed as agonist): 91.6% | MPE (Mus musculus [5]): 0%

Cc1cccc(CCNC(=O)NCC(c2cccc(F)c2)N(C)C)c1 (stereo unspecified)
Emax (Mu-type opioid receptor [2]; filed as agonist): 89.7% | Emax (Nociceptin receptor [4]; filed as agonist): 67% | MPE (Mus musculus [5]): 0%
